The subject of one assay is P23H rhodopsin. In words: Image-based (high-content imaging) assay in NIH3T3 (RHO^P23H/GFP) cells. The conditions noted are these: for EC50 / Efficacy, Image-based assay NIH3T3 (RHO^P23H/GFP): 24 h; for EC50: 8-10 doses, rhodopsin immunostaining; for Efficacy, Image-based assay NIH3T3 (RHO^P23H/GFP): DMSO 0%, secondary antibody only −100%. It counts as cell-based. The source says: Two NIH3T3 stable cell lines, NIH3T3 (RHO^WT/GFP) and NIH3T3 (RHO^P23H/GFP) were shared by Dr. Krzysztof Palczewski's lab who generated them by incorporating the […] DNA constructs to the NIH3T3 cells, respectively, via viral transduction (24, 33). GFP was co-expressed with rhodopsin for positive-clone selection. The expression of the WT and P23H rhodopsin protein was confirmed by immunoblots and immunostaining.
To assess the effect of active compounds on the clearance of P23H rhodopsin in mammalian cells, an image-based assay was performed using NIH3T3 (RHO^WT/GFP) and NIH3T3 (RHO^P23H/GFP) cells, as described previously. Briefly, cells were seeded at 5000 cells per well in 384-well plates and incubated at 37° C. in 5% CO2 for 4 hours until cells were attached to the bottom of the plate. Attached cells were treated with compounds for 24 hours. The assay medium was aspirated, and cells were fixed with 4% paraformaldehyde at 20 μL per well for 20 min at room temperature. Cell membranes were permeabilized with PBS containing 0.1% Triton X-100 (PBST) and then incubated with 50 µg/mL 1D4 anti-rhodopsin antibody at 15 μL/well for 1 hour at room temperature. After three washes with 50 μl/well of PBST, cells were incubated with 15 μL/well Cy3-conjugated goat anti-mouse IgG antibody for 1 hour at room temperature. After three washes with 50 μl/well of PBST, cells were incubated in 50 μl/well of PBS containing 2 μg/mL Hoechst 33342 to stain the nuclei. Finally, the immunostained cells were imaged by an ImageExpress High Content Imaging System (MolecularDevices). Immunofluorescence of rhodopsin was measured by MetaXpress software using the mean of total fluorescence of Cy3 channel per cell per well taken from five fields containing 600-1000 intact cells per well. After normalizing the fluorescence intensities of rhodopsin to the DMSO treated cells as 0% and cells immunostained with secondary antibody only as −100%, dose-response curves for each compound were plotted and fitted by a modified Hill function using the Origin software. The high-content imaging experiments for hit validation were performed at the CWRU drug discovery facility, and the high-content imaging analyses for the MTX co-treatment with BafA1 and MG-132 were undertaken at the University of Pittsburgh Drug Discovery Institute.

Another assay has as its system RHO transcripts. Nature of the assay: qPCR of RHO transcripts in NIH3T3 (RHO^P23H/GFP) and NIH3T3 (RHO^WT/GFP) cells. It is filed as cell-based. The following applies: 10 μM, 24 h; for WT and P23H rhodopsin transcripts in comparison to DMSO control: both cell lines; for Rho mRNA level (qPCR): vs DMSO. As to the method:
NIH3T3 (RHO^WT/GFP) and NIH3T3 (RHO^P23H/GFP) cells were seeded in the 24-well plates at a density of 2.5×10^5 cells/well and cultured at 37° C. with 5% CO2 for overnight. Cells were then incubated with the culture medium containing compounds for 24 h. After aspirating the medium, cells were collected and lysed in 300 μL/well of TRIzol (ThermoFisher, 15596026, Waltham, MA USA) for 5 min. Samples were vigorously mixed with 60 μL chloroform for 30 s, then centrifuged at 12,000×g for 15 min at 4° C. The upper aqueous phase containing RNA was taken out and mixed with 150 μL isopropanol by vigorous shaking. After sedation for 10 min, samples were centrifuged at 12,000×g for 10 min at 4° C. The pellets were washed with 300 μL 75% ethanol and centrifuged at 7,500×g at 4° C. for 5 min. The RNA pellets were air-dried for 15 min and dissolved in 30 μL nuclease-free water (FisherScientific, BP2484-100, Houston, TX USA). The yield and purity of RNA were assessed by a NanoDrop spectrometer. The cDNAs was generated from 1 μg RNA using a High-Capacity RNA-to-cDNA Kit (ThermoFisher, 4387406, Waltham, MA USA). qPCR amplifications were performed using the PowerUp SYBR Green Master Mix (ThermoFisher, A25741, Waltham, MA USA) with the cDNA templates and primers, and the reaction was controlled by a QuantStudio 3 thermocycler (ThermoFisher, Waltham, MA USA). Primer sequences are as follows: RHO, forward 5′-CCCTTCTCCAACGTCACAGG-3′ (SEQ ID NO: 1), reverse 5′-TGAGGAAGTTGATGGGGAAGC-3′ (SEQ ID NO: 2); β-actin, forward 5′-ACCTTCTACAATGAGCTGCG-3′ (SEQ ID NO: 3), reverse 5′-CTGGATGGCTACGTACATGG-3′ (SEQ ID NO: 4).
(In general: Quantitative PCR measures a nucleic acid by following its amplification.)

The text below walks through data of patent publication US12678440B2, “Compositions and methods for treating misfolded protein ocular disorders” (CASE WESTERN RESERVE UNIVERSITY, priority 2020, dated 2026).

`CCC(C)(O)C(O)C(=O)O` (stereo not shown) [CL-008]: in the assay with P23H rhodopsin, the EC50 (usually the concentration at which the effect is half-maximal) came out at 1.6 µM and the “Efficacy, Image-based assay NIH3T3 (RHO^P23H/GFP)” value (from here on “Efficacy … (RHO^P23H/GFP)”) is −70.1%. Also, in the assay on RHO transcripts, the “WT and P23H rhodopsin transcripts in comparison to DMSO control” value (from here on “WT and P23H rhodopsin transcripts”) is “reduced non-selectively”; the “Rho mRNA level (qPCR)” value is recorded as “Down”.
Consider `O=C(NC1CCNCC1)c1n[nH]cc1NC(=O)c1c(Cl)cccc1Cl` [CL-006], for which, in the assay with P23H rhodopsin, a half-maximal effect (EC50) was put at 2.2 µM and the “Efficacy … (RHO^P23H/GFP)” value is on record as −76.4%. In addition, in the assay with RHO transcripts, the “WT and P23H rhodopsin transcripts” value is “reduced non-selectively”; the “Rho mRNA level (qPCR)” value is “Down”.
Regarding `CN(Cc1cnc2nc(N)nc(N)c2n1)c1ccc(C(=O)N[C@@H](CCC(=O)O)C(=O)O)cc1` [CL-009, N-[4-[[(2,4-diamino-6-pteridinyl)methyl]methylamino]benzoyl]-L-glutamic acid], in the assay on P23H rhodopsin, the EC50 was 3.3 µM and the “Efficacy … (RHO^P23H/GFP)” value is reported as −36.0%. In addition, the EC50 with P23H rhodopsin (listed as MTX) is approximately 3.3 µM. In addition, the “mean intensity of P23H rhodopsin immunostaining per cell” value with P23H rhodopsin (MTX alone, dose series) was “reduced in an MTX dose-dependent manner”. In the assay on P23H rhodopsin (co-treatment 100 nM BafA1), the “MTX dose-dependent reduction of P23H rhodopsin immunostaining, co-treatment with BafA1” value is given as “entirely abolished”. Moreover, the “MTX dose-dependent reduction of P23H rhodopsin immunostaining, addition of MG-132” value in the assay with P23H rhodopsin (co-treatment 5 μM MG-132) is “not affected”. Moreover, in the assay with RHO transcripts, the “WT and P23H rhodopsin transcripts” value is given as “did not affect the transcription”; the “Rho mRNA level (qPCR)” value is recorded as “No Change”.
Consider `CC(=O)OC(CC(=O)O)C[N+](C)(C)C` (stereo not shown) [CL-002], for which, in the assay on P23H rhodopsin, the midpoint of the response, the EC50, lay at 1.6 µM and the “Efficacy … (RHO^P23H/GFP)” value is −61.0%. Moreover, in the assay with RHO transcripts, the “WT and P23H rhodopsin transcripts” value was “reduced non-selectively”; the “Rho mRNA level (qPCR)” value was “Down”.
Consider `CCn1cnc2c(N)ncnc21` [CL-007], for which, in the assay on P23H rhodopsin, a half-maximal effect (EC50) was put at 2.9 µM and the “Efficacy … (RHO^P23H/GFP)” value was −72.7%. In the assay with RHO transcripts, the “WT and P23H rhodopsin transcripts” value is reported as “reduced non-selectively”; the “Rho mRNA level (qPCR)” value is on record as “Down”.
On the same counts, the results for `CC(=O)OC(CC(=O)[O-])C[N+](C)(C)C` (stereo not shown) [CL-001] are 2.1 µM, −83.6%, “reduced non-selectively” and “Down”.
With `NCC(=O)COP(=O)(O)O` [CL-005], in the assay on P23H rhodopsin, the EC50 turned out to be 1.3 µM and the “Efficacy … (RHO^P23H/GFP)” value was −72.7%. Further, the “increase of rhodopsin transcripts compared to DMSO control” value in the assay with RHO transcripts (both NIH3T3 (RHO^P23H/GFP) and NIH3T3 (RHO^WT/GFP) cells) is given as “up to 2 fold”. Besides, the “Rho mRNA level (qPCR)” value in the assay on RHO transcripts is on record as “Up”.
Regarding `CC(O)CN` (stereo not shown) [CL-004], in the assay on P23H rhodopsin, a half-maximal response (EC50) required 0.47 µM and the “Efficacy … (RHO^P23H/GFP)” value is recorded as −70.7%. Moreover, in the assay with RHO transcripts, the “WT and P23H rhodopsin transcripts” value is “reduced non-selectively”; the “Rho mRNA level (qPCR)” value is reported as “Down”.
The corresponding values for `O=C(O)C1=CC=CC(O)C1O` (stereo not shown) [CL-003] are 0.6 µM, −46.1%, “reduced non-selectively” and “Down”.
